Results on one compound are retold here after patent US20240415894A1, “MITOCHONDRIAL AUGMENTATION THERAPY WITH STEM CELLS ENRICHED WITH FUNCTIONAL MITOCHONDRIA” (Minovia Therapeutics Ltd., priority 2018, published 2024).

In the experiment the test system is Mouse fibroblast cells (3T3). Briefly: ATP level in Rotenone-treated mouse fibroblast cells (ATPlite kit). Format: cell-based. As to conditions: 0.5 μM Rotenone for 4 hours; vs control cells. On the procedure:
Mouse fibroblast cells (104, 3T3) were either not treated (control) or treated with 0.5 μM Rotenone (Rotenone, mitochondrial complex I irreversible inhibitor, CAS number 83-79-4) for 4 hours, washed, and further treated with 0.02 mg/ml mouse placental mitochondria (Rotenone+Mitochondria) for 3 hours. The cells were washed and ATP level was determined using the Perkin Elmer ATPlite kit (FIG. 2), as previously shown in WO 2016/135723.

Take `C=C(C)[C@H]1Cc2c(ccc3c2O[C@@H]2COc4cc(OC)c(OC)cc4[C@@H]2C3=O)O1` [Rotenone]: the “decrease of ATP levels” value was “about 50%”.
